Data reported in the supplement of paper PMC11451515.

System: P12-Ichikawa
Test: cell viability relative to DMSO control; higher = less cytotoxic
Conditions: 48 h
Summary of the method: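 Viability is expressed as a percentage of DMSO wells within each plate, and cell-free wells serve as background. Seeding densities in the 1536-well plates (5 μl) were 500 cells/well for NOMO1 or SEM leukemia cells and 1000 cells/well for P12-Ichikawa. Each line was adapted for at least four passages in each medium. Library compounds in DMSO were pin-dosed at 47 μM to 0.79 nM (11 points, threefold), and CellTiter-Glo One luminescence was read after 48 h at 37°C.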

[1] = HPLM + 10% dialyzed FBS, 0.000781 µM
[2] = HPLM + 10% dialyzed FBS, 0.00234 µM
[3] = HPLM + 10% dialyzed FBS, 0.00702 µM
[4] = HPLM + 10% dialyzed FBS, 0.0211 µM
[5] = HPLM + 10% dialyzed FBS, 0.0632 µM
[6] = HPLM + 10% dialyzed FBS, 0.19 µM
[7] = HPLM + 10% dialyzed FBS, 0.569 µM
[8] = HPLM + 10% dialyzed FBS, 1.71 µM
[9] = HPLM + 10% dialyzed FBS, 5.12 µM
[10] = HPLM + 10% dialyzed FBS, 15.4 µM
[11] = HPLM + 10% dialyzed FBS, 46.1 µM
[12] = RPMI 5 mM glucose + 10% FBS, 0.000781 µM
[13] = RPMI 5 mM glucose + 10% FBS, 0.00234 µM
[14] = RPMI 5 mM glucose + 10% FBS, 0.00702 µM
[15] = RPMI 5 mM glucose + 10% FBS, 0.0211 µM
[16] = RPMI 5 mM glucose + 10% FBS, 0.0632 µM
[17] = RPMI 5 mM glucose + 10% FBS, 0.19 µM
[18] = RPMI 5 mM glucose + 10% FBS, 0.569 µM
[19] = RPMI 5 mM glucose + 10% FBS, 1.71 µM
[20] = RPMI 5 mM glucose + 10% FBS, 5.12 µM
[21] = RPMI 5 mM glucose + 10% FBS, 15.4 µM
[22] = RPMI 5 mM glucose + 10% FBS, 46.1 µM
[23] = RPMI 5 mM glucose + 10% dialyzed FBS, 0.000781 µM
[24] = RPMI 5 mM glucose + 10% dialyzed FBS, 0.00234 µM
[25] = RPMI 5 mM glucose + 10% dialyzed FBS, 0.00702 µM
[26] = RPMI 5 mM glucose + 10% dialyzed FBS, 0.0211 µM
[27] = RPMI 5 mM glucose + 10% dialyzed FBS, 0.0632 µM
[28] = RPMI 5 mM glucose + 10% dialyzed FBS, 0.19 µM
[29] = RPMI 5 mM glucose + 10% dialyzed FBS, 0.569 µM
[30] = RPMI 5 mM glucose + 10% dialyzed FBS, 1.71 µM
[31] = RPMI 5 mM glucose + 10% dialyzed FBS, 5.12 µM
[32] = RPMI 5 mM glucose + 10% dialyzed FBS, 15.4 µM
[33] = RPMI 5 mM glucose + 10% dialyzed FBS, 46.1 µM

| Structure (SMILES) | cell viability [1] [%] | cell viability [2] [%] | cell viability [3] [%] | cell viability [4] [%] | cell viability [5] [%] | cell viability [6] [%] | cell viability [7] [%] | cell viability [8] [%] | cell viability [9] [%] | cell viability [10] [%] | cell viability [11] [%] | cell viability [12] [%] | cell viability [13] [%] | cell viability [14] [%] | cell viability [15] [%] | cell viability [16] [%] | cell viability [17] [%] | cell viability [18] [%] | cell viability [19] [%] | cell viability [20] [%] | cell viability [21] [%] | cell viability [22] [%] | cell viability [23] [%] | cell viability [24] [%] | cell viability [25] [%] | cell viability [26] [%] | cell viability [27] [%] | cell viability [28] [%] | cell viability [29] [%] | cell viability [30] [%] | cell viability [31] [%] | cell viability [32] [%] | cell viability [33] [%] |
| --- | --- | --- | --- | --- | --- | --- | --- | --- | --- | --- | --- | --- | --- | --- | --- | --- | --- | --- | --- | --- | --- | --- | --- | --- | --- | --- | --- | --- | --- | --- | --- | --- | --- |
| COC1=CC=C2C(=CC=NC2=C1)OC3=CC=C(NC(=O)\C4=C(C)\N(CC(C)(C)O)N(C4=O)C5=CC=CC=C5)C=C3F | 121 | 123 | 122 | 123 | 123 | 132 | 135 | 132 | 129 | 122 | 118 |  |  |  |  |  |  |  |  |  |  |  |  |  |  |  |  |  |  |  |  |  |  |
| CCCn1c(=O)c2[nH]c(-c3cnn(Cc4cccc(C(F)(F)F)c4)c3)nc2n(CC)c1=O | 108 | 106 | 122 | 112 | 112 | 115 | 109 | 106 | 88.1 | 83.3 | 84.7 | 115 | 124 | 123 | 137 | 125 | 118 | 85.6 | 73 | 65.1 | 74.6 | 72.9 | 114 | 109 | 105 | 108 | 107 | 109 | 109 | 103 | 81.4 | 73.6 | 68.8 |
| Cl.Cl.Fc1ccc(C(OCCN2CCN(CCCc3ccccc3)CC2)c2ccc(F)cc2)cc1 | 105 | 104 | 109 | 112 | 116 | 109 | 109 | 113 | 120 | 113 | 78.4 | 114 | 133 | 118 | 123 | 136 | 126 | 126 | 124 | 122 | 124 | 73.9 | 115 | 121 | 119 | 117 | 127 | 121 | 122 | 115 | 120 | 120 | 62.8 |
| NC/1=N/C(=O)N(/C=C1)[C@H]2CC[C@@H](CO)O2 | 85 | 95.4 | 93.5 | 101 | 95.9 | 102 | 96.1 | 106 | 95.5 | 104 | 37.6 | 88.3 | 87.6 | 88.6 | 94 | 102 | 91.1 | 99.6 | 92.2 | 94.3 | 90.9 | 41.8 | 59.6 | 87.9 | 88.1 | 90.3 | 85.1 | 90.4 | 96.6 | 93.9 | 98.2 | 90.9 | 30 |
